Laboratory results taken from patent US10272041B2, “Acid stable liposomal compositions and methods for producing the same” (The Penn State Research Foundation, priority 2013, dated 2019).

Tested on: MDA-MB-231 cells
Test: Cell viability/cell growth, cells re-treated every 48 hours
Type: cell-based
Details: triple negative breast cancer cells
Description: MDA-MB-231 cells were plated on a 96-well plate at 10,000 cells per well to evaluate the effects of BSA alone, conjugated DHA-BSA, Liposomal DHA, and a ghost liposome on cell viability. The cells were re-treated every 48 hours. […] All treatments were compared to the cell/media control. The ghost had no effect on cell viability.

CC/C=C\C/C=C\C/C=C\C/C=C\C/C=C\C/C=C\CCC(=O)O [DHA, Docosahexanoic acid]
concentration that inhibits cell growth with comparable effect: 25 to 50 µM
